{
  "source": "the supplement of paper PMC10307832",
  "assay_in_all_cases": "relative viability (nuclei count vs DMSO), 5 days (fraction); higher = more cells survive",
  "key": {"COR-L23": {"test_system": "COR-L23", "outline": "(§1)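 Dosing by pin tool came one day after lung cancer cell lines were seeded in 1536-well plates, using either one drug or a fixed anchor-drug dose plus five library-drug doses (not always all listed) in √10 steps. After 5 days, nuclei were counted on 4× images. Relative viability is treated-well nuclei count divided by vehicle-well nuclei count, and values are medians of duplicate plates.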"}, "ChaGo-K-1": {"test_system": "ChaGo-K-1", "outline": "as §1"}, "EPLC-272H": {"test_system": "EPLC-272H", "outline": "as §1"}, "H3255": {"test_system": "H3255", "outline": "as §1"}, "HARA": {"test_system": "HARA", "outline": "as §1"}, "HCC-78": {"test_system": "HCC-78", "outline": "as §1"}, "HOP-62": {"test_system": "HOP-62", "outline": "as §1"}, "LCLC-97TM1": {"test_system": "LCLC-97TM1", "outline": "as §1"}, "LXF-289": {"test_system": "LXF-289", "outline": "as §1"}, "NCI-H1395": {"test_system": "NCI-H1395", "outline": "as §1"}, "NCI-H1437": {"test_system": "NCI-H1437", "outline": "as §1"}, "NCI-H1650": {"test_system": "NCI-H1650", "outline": "as §1"}},
  "data": [
    {"smiles": "CCNC(=O)c1noc(-c2cc(C(C)C)c(O)cc2O)c1-c1ccc(CN2CCOCC2)cc1", "note": "[Luminespib] + N=C(N)NC(=N)NCCc1ccccc1 [Phenformin] (partner 250 µM)", "values": [
      {"measurement": "relative viability", "setting": "COR-L23; first compound 0.002 µM", "value": 0.456},
      {"measurement": "relative viability", "setting": "COR-L23; first compound 0.006325 µM", "value": 0.367},
      {"measurement": "relative viability", "setting": "COR-L23; first compound 0.02 µM", "value": 0.457},
      {"measurement": "relative viability", "setting": "COR-L23; first compound 0.06325 µM", "value": 0.0668},
      {"measurement": "relative viability", "setting": "COR-L23; first compound 0.2 µM", "value": 0.0674},
      {"measurement": "relative viability", "setting": "ChaGo-K-1; first compound 0.002 µM", "value": 0.504},
      {"measurement": "relative viability", "setting": "ChaGo-K-1; first compound 0.006325 µM", "value": 0.456},
      {"measurement": "relative viability", "setting": "ChaGo-K-1; first compound 0.02 µM", "value": 0.467},
      {"measurement": "relative viability", "setting": "ChaGo-K-1; first compound 0.06325 µM", "value": 0.303},
      {"measurement": "relative viability", "setting": "ChaGo-K-1; first compound 0.2 µM", "value": 0.152},
      {"measurement": "relative viability", "setting": "EPLC-272H; first compound 0.002 µM", "value": 0.307},
      {"measurement": "relative viability", "setting": "EPLC-272H; first compound 0.006325 µM", "value": 0.291},
      {"measurement": "relative viability", "setting": "EPLC-272H; first compound 0.06325 µM", "value": 0.271},
      {"measurement": "relative viability", "setting": "EPLC-272H; first compound 0.2 µM", "value": 0.0832},
      {"measurement": "relative viability", "setting": "H3255; first compound 0.002 µM", "value": 0.328},
      {"measurement": "relative viability", "setting": "H3255; first compound 0.006325 µM", "value": 0.347},
      {"measurement": "relative viability", "setting": "H3255; first compound 0.06325 µM", "value": 0.319},
      {"measurement": "relative viability", "setting": "H3255; first compound 0.2 µM", "value": 0.187},
      {"measurement": "relative viability", "setting": "HARA; first compound 0.002 µM", "value": 0.484},
      {"measurement": "relative viability", "setting": "HARA; first compound 0.006325 µM", "value": 0.422},
      {"measurement": "relative viability", "setting": "HARA; first compound 0.02 µM", "value": 0.485},
      {"measurement": "relative viability", "setting": "HARA; first compound 0.06325 µM", "value": 0.245},
      {"measurement": "relative viability", "setting": "HARA; first compound 0.2 µM", "value": 0.0594},
      {"measurement": "relative viability", "setting": "HCC-78; first compound 0.002 µM", "value": 0.689},
      {"measurement": "relative viability", "setting": "HCC-78; first compound 0.006325 µM", "value": 0.52},
      {"measurement": "relative viability", "setting": "HCC-78; first compound 0.06325 µM", "value": 0.767},
      {"measurement": "relative viability", "setting": "HCC-78; first compound 0.2 µM", "value": 0.257},
      {"measurement": "relative viability", "setting": "HOP-62; first compound 0.002 µM", "value": 0.674},
      {"measurement": "relative viability", "setting": "HOP-62; first compound 0.006325 µM", "value": 0.721},
      {"measurement": "relative viability", "setting": "HOP-62; first compound 0.02 µM", "value": 0.696},
      {"measurement": "relative viability", "setting": "HOP-62; first compound 0.06325 µM", "value": 0.364},
      {"measurement": "relative viability", "setting": "HOP-62; first compound 0.2 µM", "value": 0.165},
      {"measurement": "relative viability", "setting": "LCLC-97TM1; first compound 0.002 µM", "value": 0.399},
      {"measurement": "relative viability", "setting": "LCLC-97TM1; first compound 0.006325 µM", "value": 0.374},
      {"measurement": "relative viability", "setting": "LCLC-97TM1; first compound 0.02 µM", "value": 0.426},
      {"measurement": "relative viability", "setting": "LCLC-97TM1; first compound 0.06325 µM", "value": 0.428},
      {"measurement": "relative viability", "setting": "LCLC-97TM1; first compound 0.2 µM", "value": 0.102},
      {"measurement": "relative viability", "setting": "LXF-289; first compound 0.002 µM", "value": 0.429},
      {"measurement": "relative viability", "setting": "LXF-289; first compound 0.006325 µM", "value": 0.482},
      {"measurement": "relative viability", "setting": "LXF-289; first compound 0.02 µM", "value": 0.593},
      {"measurement": "relative viability", "setting": "LXF-289; first compound 0.06325 µM", "value": 0.163},
      {"measurement": "relative viability", "setting": "LXF-289; first compound 0.2 µM", "value": 0.0721},
      {"measurement": "relative viability", "setting": "NCI-H1395; first compound 0.002 µM", "value": 0.448},
      {"measurement": "relative viability", "setting": "NCI-H1395; first compound 0.006325 µM", "value": 0.401},
      {"measurement": "relative viability", "setting": "NCI-H1395; first compound 0.02 µM", "value": 0.39},
      {"measurement": "relative viability", "setting": "NCI-H1395; first compound 0.06325 µM", "value": 0.326},
      {"measurement": "relative viability", "setting": "NCI-H1395; first compound 0.2 µM", "value": 0.335},
      {"measurement": "relative viability", "setting": "NCI-H1437; first compound 0.002 µM", "value": 0.325},
      {"measurement": "relative viability", "setting": "NCI-H1437; first compound 0.006325 µM", "value": 0.3},
      {"measurement": "relative viability", "setting": "NCI-H1437; first compound 0.02 µM", "value": 0.358},
      {"measurement": "relative viability", "setting": "NCI-H1437; first compound 0.06325 µM", "value": 0.173},
      {"measurement": "relative viability", "setting": "NCI-H1437; first compound 0.2 µM", "value": 0.154},
      {"measurement": "relative viability", "setting": "NCI-H1650; first compound 0.002 µM", "value": 0.48},
      {"measurement": "relative viability", "setting": "NCI-H1650; first compound 0.006325 µM", "value": 0.219},
      {"measurement": "relative viability", "setting": "NCI-H1650; first compound 0.02 µM", "value": 0.165},
      {"measurement": "relative viability", "setting": "NCI-H1650; first compound 0.06325 µM", "value": 0.15}
    ]}
  ]
}
